Numbers after ± are expanded uncertainties.
Legend:
[1] = xn = mol fraction of the nth substance listed; details: 101 kPa, Liquid, x1 = 1
[2] = 101 kPa, Liquid

Row | Structure (SMILES) | mass density ([1]; 298.15 K) [kg/m3] | viscosity ([1]; 298.15 K) [mPa·s] | mass density ([1]; 303.15 K) [kg/m3] | viscosity ([1]; 303.15 K) [mPa·s] | mass density ([1]; 313.15 K) [kg/m3] | viscosity ([1]; 313.15 K) [mPa·s] | mass density ([1]; 323.15 K) [kg/m3] | viscosity ([1]; 323.15 K) [mPa·s] | mass density ([1]; 333.15 K) [kg/m3] | viscosity ([1]; 333.15 K) [mPa·s] | mass density ([1]; 343.15 K) [kg/m3] | viscosity ([1]; 343.15 K) [mPa·s] | further results
1 | c1ccccc1 [benzene] + O=CN1CCOCC1 | 873.57 ± 1.3 | 0.601 ± 0.032 | 868.24 ± 1.3 | 0.562 ± 0.031 | 857.34 ± 1.4 | 0.493 ± 0.028 | 846.59 ± 1.5 | 0.436 ± 0.025 | 835.75 ± 1.5 | 0.389 ± 0.023 | 824.98 ± 1.6 | 0.354 ± 0.022 | –
2 | O=CN1CCOCC1 [N-formylmorpholine] | – | – | – | – | – | – | – | – | – | – | – | – | mass density ([2]; 298.15 K): 1146.06 ± 1.5 kg/m3; viscosity ([2]; 298.15 K): 7.955 ± 0.31 mPa·s; mass density ([2]; 303.15 K): 1141.7 ± 1.4 kg/m3; viscosity ([2]; 303.15 K): 6.877 ± 0.28 mPa·s; mass density ([2]; 313.15 K): 1132.96 ± 1.4 kg/m3; viscosity ([2]; 313.15 K): 5.214 ± 0.22 mPa·s; mass density ([2]; 323.15 K): 1124.33 ± 1.3 kg/m3; viscosity ([2]; 323.15 K): 4.08 ± 0.18 mPa·s; mass density ([2]; 333.15 K): 1115.63 ± 1.3 kg/m3; viscosity ([2]; 333.15 K): 3.284 ± 0.15 mPa·s; mass density ([2]; 343.15 K): 1107.96 ± 1.2 kg/m3; viscosity ([2]; 343.15 K): 2.707 ± 0.12 mPa·s; mass density ([2]; 353.15 K): 1098.76 ± 1.2 kg/m3; viscosity ([2]; 353.15 K): 2.274 ± 0.1 mPa·s
3 | Cc1ccccc1 [toluene] + O=CN1CCOCC1 | 861.65 ± 1.4 | 0.553 ± 0.03 | 857.01 ± 1.4 | 0.522 ± 0.029 | 847.63 ± 1.5 | 0.467 ± 0.026 | 838.23 ± 1.5 | 0.421 ± 0.024 | 828.71 ± 1.6 | 0.381 ± 0.023 | 819.86 ± 1.6 | 0.349 ± 0.021 | mass density ([1]; 353.15 K): 809.68 ± 1.7 kg/m3; viscosity ([1]; 353.15 K): 0.321 ± 0.02 mPa·s

Reference: the NIST ThermoML archive (doi:10.1021/je060475r)
